From article PMC12796071, “Evaluation of [^18F]MNI-1054, a novel PET ligand for lysine-specific histone demethylase 1A (LSD1), in non-human primates” (EJNMMI Research, 2025)
Several values for one entry are separate records, joined by “and”; a condition that tells them apart may be missing. Equal values may be shown once. Entries after “also recorded” stand apart in the source; their conditions may differ.

Columns and labels:
[1] = Whole-body PET biodistribution and radiation dosimetry (OLINDA 2.0); format: in vivo; conditions: for Dose, Urinary bladder wall: no-bladder-void model; for whole-body effective dose, ED (ICRP-103): scaled from NHP to human
Method: Dynamic whole-body PET was conducted in one male (M3, 15.4 kg) and one female (M4, 6.8 kg) rhesus to study the biodistribution and radiation dosimetry of [^18F]MNI-1054. Whole-body images were acquired over ~4 h (17–19 passes, 4 bed positions) using a Biograph mCT PET/CT scanner (Siemens). The images in the series were subsequently reconstructed in 400 × 400 × 300 pixel arrays with pixel size: 2 × 2 × 2 mm^3 using the iterative True-X algorithm (4 iterations, 21 subsets) provided by the camera manufacturer, incorporating point spread function modeling and corrections for random, scatter, normalization, dead-time and attenuation. Prior to PET, each animal received a whole-body CT for correcting attenuation and scatter as well as to assist in anatomical localization of organs of interest.
Reconstructed whole-body PET volumes were transferred to PMOD software (PMOD Technologies, Zurich, Switzerland) for analysis. Decay correction was first removed to facilitate the calculation of radioactive disintegrations from dynamic data. Images were reviewed for assessment of body organ radioactivity distribution. VOIs were manually drawn to capture the following organs: brain, heart wall, lungs, gallbladder, liver, kidneys, spleen, testes (male), urinary bladder, back vertebrae, and intestines, and defined dynamically to account for any animal movement or shift in organ position or shape between acquisitions. Total activity (kBq) within each VOI was determined and organ TACs were generated and expressed as percent of the injected activity.
The number of disintegrations per unit activity administered in each source organ (i.e., the “residence times” or “time-integrated activity coefficients”), τ, were computed from the areas under the non-decay corrected TACs via the trapezoidal method. The area under the curve from the end of imaging to infinity was calculated with the assumption of physical decay only following the last imaging time point. Residence times were converted to adult human values using conversion factors based on differences in organ and body weights between both species. The ICRP 100 HAT gastrointestinal (GI) tract model was applied to estimate residence times in the left, right, and sigmoid (i.e., rectum) colon and small intestine, with the assumption that activity entered the GI tract via the small intestine with no reabsorption. The intestinal decay-corrected time-activity curve was used for estimating the fraction of the radioactivity entering the intestine during imaging. Red marrow residence times were calculated based on assumption that vertebrae contain ~40% of total red marrow.
OLINDA 2.0 software (Hermes Medical Solutions) was used to estimate the organ and whole-body radiation absorbed doses. OLINDA 2.0 performs internal dose calculations based on MIRD and Radiation Dose Assessment Resource (RADAR) methodology. ICRP-89 adult male (73 kg) and female (60 kg) models were used to calculate the s-factors. All other MIRD assumptions about the homogeneity of source organ distribution were employed. The effective doses were computed with biological tissue weighting factors defined in the ICRP Publication 103 [26].

LSD1 = LSD1 (Macaca mulatta, UniProt I2CUD2); experiment: PET imaging of the testes (baseline and TAK-418 blocking); conditions: baseline scan; M3
Method: TAK-418 (3 mg/kg) was administered as an intravenous bolus over 5-min, starting 120 min prior to [^18F]MNI-1054 administration.

Cc1cc([18F])ncc1C(=O)Nc1ccc([C@@H]2C[C@H]2NCC2CC2)cc1 [[^18F]MNI-1054]
Dose, Adrenals ([1]; ICRP-89 adult female model): 2.24E-02 mSv/MBq | Dose, Brain ([1]; ICRP-89 adult female model): 1.22E-02 mSv/MBq | Dose, Breasts ([1]; ICRP-89 adult female model): 1.06E-02 mSv/MBq | Dose, Esophagus ([1]; ICRP-89 adult female model): 1.75E-02 mSv/MBq | Dose, Eyes ([1]; ICRP-89 adult female model): 9.29E-03 mSv/MBq | Dose, Gallbladder wall ([1]; ICRP-89 adult female model): 2.88E-01 mSv/MBq | Dose, Heart wall ([1]; ICRP-89 adult female model): 4.98E-02 mSv/MBq | Dose, Kidneys ([1]; ICRP-89 adult female model): 5.28E-02 mSv/MBq | Dose, Left colon ([1]; ICRP-89 adult female model): 3.02E-02 mSv/MBq | Dose, Liver ([1]; ICRP-89 adult female model): 2.29E-02 mSv/MBq | Dose, Lungs ([1]; ICRP-89 adult female model): 6.16E-02 mSv/MBq | Dose, Osteogenic cells ([1]; ICRP-89 adult female model): 1.36E-02 mSv/MBq | Dose, Ovaries ([1]; ICRP-89 adult female model): 1.66E-02 mSv/MBq | Dose, Pancreas ([1]; ICRP-89 adult female model): 2.12E-02 mSv/MBq | Dose, Rectum ([1]; ICRP-89 adult female model): 1.88E-02 mSv/MBq | Dose, Red marrow ([1]; ICRP-89 adult female model): 2.01E-02 mSv/MBq | Dose, Right colon ([1]; ICRP-89 adult female model): 6.29E-02 mSv/MBq | Dose, Salivary glands ([1]; ICRP-89 adult female model): 1.01E-02 mSv/MBq | Dose, Small intestine ([1]; ICRP-89 adult female model): 6.01E-02 mSv/MBq | Dose, Spleen ([1]; ICRP-89 adult female model): 2.77E-02 mSv/MBq | Dose, Stomach wall ([1]; ICRP-89 adult female model): 1.69E-02 mSv/MBq | Dose, Thymus ([1]; ICRP-89 adult female model): 1.88E-02 mSv/MBq | Dose, Thyroid ([1]; ICRP-89 adult female model): 1.32E-02 mSv/MBq | Dose, Total body ([1]; ICRP-89 adult female model): 1.53E-02 mSv/MBq | Dose, Uterus ([1]; ICRP-89 adult female model): 1.92E-02 mSv/MBq | Dose, Urinary bladder wall ([1]; ICRP-89 adult female model): 5.92E-02 mSv/MBq | whole-body effective dose, ED (ICRP-103) ([1]; ICRP-89 adult female model): 0.0272 mSv/MBq and 2.72E-02 mSv/MBq | Dose, Adrenals ([1]; ICRP-89 adult male model): 1.87E-02 mSv/MBq | Dose, Brain ([1]; ICRP-89 adult male model): 9.69E-03 mSv/MBq | Dose, Esophagus ([1]; ICRP-89 adult male model): 1.49E-02 mSv/MBq | Dose, Eyes ([1]; ICRP-89 adult male model): 7.78E-03 mSv/MBq | Dose, Gallbladder wall ([1]; ICRP-89 adult male model): 6.57E-02 mSv/MBq | Dose, Heart wall ([1]; ICRP-89 adult male model): 4.90E-02 mSv/MBq | Dose, Kidneys ([1]; ICRP-89 adult male model): 4.63E-02 mSv/MBq | Dose, Left colon ([1]; ICRP-89 adult male model): 1.62E-02 mSv/MBq | Dose, Liver ([1]; ICRP-89 adult male model): 3.02E-02 mSv/MBq | Dose, Lungs ([1]; ICRP-89 adult male model): 4.01E-02 mSv/MBq | Dose, Osteogenic cells ([1]; ICRP-89 adult male model): 1.21E-02 mSv/MBq | Dose, Pancreas ([1]; ICRP-89 adult male model): 1.48E-02 mSv/MBq | Dose, Prostate ([1]; ICRP-89 adult male model): 1.78E-02 mSv/MBq | Dose, Rectum ([1]; ICRP-89 adult male model): 1.60E-02 mSv/MBq | Dose, Red marrow ([1]; ICRP-89 adult male model): 1.65E-02 mSv/MBq | Dose, Right colon ([1]; ICRP-89 adult male model): 2.37E-02 mSv/MBq | Dose, Salivary glands ([1]; ICRP-89 adult male model): 9.10E-03 mSv/MBq | Dose, Small intestine ([1]; ICRP-89 adult male model): 2.08E-02 mSv/MBq | Dose, Spleen ([1]; ICRP-89 adult male model): 1.84E-02 mSv/MBq | Dose, Stomach wall ([1]; ICRP-89 adult male model): 1.42E-02 mSv/MBq | Dose, Testes ([1]; ICRP-89 adult male model): 3.17E-02 mSv/MBq | Dose, Thymus ([1]; ICRP-89 adult male model): 1.44E-02 mSv/MBq | Dose, Thyroid ([1]; ICRP-89 adult male model): 1.14E-02 mSv/MBq | Dose, Total body ([1]; ICRP-89 adult male model): 1.16E-02 mSv/MBq | Dose, Urinary bladder wall ([1]; ICRP-89 adult male model): 1.24E-01 mSv/MBq | whole-body effective dose, ED (ICRP-103) ([1]; ICRP-89 adult male model): 0.0267 mSv/MBq and 2.67E-02 mSv/MBq | Dose, Adrenals ([1]; Mean): 2.06E-02 mSv/MBq | Dose, Brain ([1]; Mean): 1.09E-02 mSv/MBq | Dose, Breasts ([1]; Mean): 1.06E-02 mSv/MBq | Dose, Esophagus ([1]; Mean): 1.62E-02 mSv/MBq | Dose, Eyes ([1]; Mean): 8.54E-03 mSv/MBq | Dose, Gallbladder wall ([1]; Mean): 0.18 mSv/MBq and 0.177 mSv/MBq and 1.77E-01 mSv/MBq | Dose, Heart wall ([1]; Mean): 4.94E-02 mSv/MBq | Dose, Kidneys ([1]; Mean): 4.96E-02 mSv/MBq | Dose, Left colon ([1]; Mean): 2.32E-02 mSv/MBq | Dose, Liver ([1]; Mean): 2.66E-02 mSv/MBq | Dose, Lungs ([1]; Mean): 5.09E-02 mSv/MBq | Dose, Osteogenic cells ([1]; Mean): 1.29E-02 mSv/MBq | Dose, Ovaries ([1]; Mean): 1.66E-02 mSv/MBq | Dose, Pancreas ([1]; Mean): 1.80E-02 mSv/MBq | Dose, Prostate ([1]; Mean): 1.78E-02 mSv/MBq | Dose, Rectum ([1]; Mean): 1.74E-02 mSv/MBq | Dose, Red marrow ([1]; Mean): 1.83E-02 mSv/MBq | Dose, Right colon ([1]; Mean): 4.33E-02 mSv/MBq | Dose, Salivary glands ([1]; Mean): 9.60E-03 mSv/MBq | Dose, Small intestine ([1]; Mean): 4.05E-02 mSv/MBq | Dose, Spleen ([1]; Mean): 2.31E-02 mSv/MBq | Dose, Stomach wall ([1]; Mean): 1.56E-02 mSv/MBq | Dose, Testes ([1]; Mean): 3.17E-02 mSv/MBq | Dose, Thymus ([1]; Mean): 1.66E-02 mSv/MBq | Dose, Thyroid ([1]; Mean): 1.23E-02 mSv/MBq | Dose, Total body ([1]; Mean): 1.35E-02 mSv/MBq | Dose, Uterus ([1]; Mean): 1.92E-02 mSv/MBq | Dose, Urinary bladder wall ([1]; Mean): 0.0916 mSv/MBq and 9.16E-02 mSv/MBq | whole-body effective dose, ED (ICRP-103) ([1]; Mean): 2.70E-02 mSv/MBq | whole-body effective dose per 185 MBq injected ([1]; female value): 5.03 mSv | maximal dose allowed for a single study per 21 CFR § 361.1 ([1]; gallbladder wall as the dose-limiting organ): 282.5 MBq | elimination pathways ([1]; whole-body imaging): eliminated via both hepatobiliary and urinary pathways; also recorded: urinary (primary) and hepatobiliary pathways | testes uptake (SUV) (LSD1): ~ 2
